Where two headings read alike, the source gives them in different places. Values belong to the compound of their own block, whether it stands above or below them.
Experiments:
Format in all cases: cell-based
[1] = biological target: T1, NR2F6 (Homo sapiens, UniProt P10588); experiment: NR2F6 agonist screening, Firefly signal cmpd/DMSO
T1 construct: expressed in transfected cells; also transient transfection
T1 sequence (P10588 1-404): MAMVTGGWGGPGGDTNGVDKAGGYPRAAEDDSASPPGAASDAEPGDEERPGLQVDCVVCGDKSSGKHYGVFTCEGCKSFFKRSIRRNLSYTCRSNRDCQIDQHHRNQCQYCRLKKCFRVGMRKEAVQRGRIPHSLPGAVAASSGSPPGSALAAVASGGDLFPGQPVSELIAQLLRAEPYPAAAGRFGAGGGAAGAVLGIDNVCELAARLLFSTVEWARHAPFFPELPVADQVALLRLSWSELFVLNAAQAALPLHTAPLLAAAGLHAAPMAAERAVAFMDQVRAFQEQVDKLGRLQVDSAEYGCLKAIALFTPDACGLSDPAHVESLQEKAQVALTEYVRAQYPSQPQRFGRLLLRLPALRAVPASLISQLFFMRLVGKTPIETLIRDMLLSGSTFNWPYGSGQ

[2] = tested on: HEK293 pGL4; experiment: Firefly_pGL signal, cmpd/DMSO (pGL4 control cells); conditions: Homo sapiens
[3] = tested on: Renilla; experiment: Renilla signal in NR2F6 agonist screening, cmpd/DMSO; conditions: Renilla, F4
[4] = biological target: T2, NR2F6 LBD (Homo sapiens, UniProt P10588); experiment: NR2F6 LBD transient transfection; conditions: LBD
T2 construct: expressed in transfected cells
T2 sequence (P10588 165-393 limits assumed): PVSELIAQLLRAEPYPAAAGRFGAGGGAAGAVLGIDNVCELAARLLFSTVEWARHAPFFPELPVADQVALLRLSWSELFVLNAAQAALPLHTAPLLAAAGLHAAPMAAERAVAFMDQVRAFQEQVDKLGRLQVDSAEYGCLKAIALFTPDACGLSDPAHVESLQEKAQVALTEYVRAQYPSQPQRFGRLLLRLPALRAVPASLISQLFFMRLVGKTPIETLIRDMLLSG
Procedure, shortened: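 LBD-transfected cells treated at 40, 10, 2 and 0.5 μM (4 replicates); cytotoxicity measured in parallel, normalized to DMSO (0%) and zero signal (100%). Higher concentrations excluded where signal loss reflected toxicity.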

[5] = HEK293, 0.5 uM, pGL4, read-out: Firefly pGL4, cmpd/DMSO (mean)
[6] = HEK293, 2 uM, pGL4, read-out: Firefly pGL4, cmpd/DMSO (mean)
[7] = HEK293, 10 uM, pGL4, read-out: Firefly pGL4, cmpd/DMSO (mean)
[8] = HEK293, 40 uM, pGL4, read-out: Firefly pGL4, cmpd/DMSO (mean)
[9] = HEK293, pGL4, 1% FBS, 0.5 uM, read-out: Firefly, pGL4, 1% FBS, cmpd/DMSO (mean)
[10] = HEK293, pGL4, 1% FBS, 2 uM, read-out: Firefly, pGL4, 1% FBS, cmpd/DMSO (mean)
[11] = HEK293, pGL4, 1% FBS, 10 uM, read-out: Firefly, pGL4, 1% FBS, cmpd/DMSO (mean)
[12] = HEK293, pGL4, 1% FBS, 40 uM, read-out: Firefly, pGL4, 1% FBS, cmpd/DMSO (mean)
[13] = HEK293, pGL4, 10% FBS, 0.5 uM, read-out: Firefly, pGL4, 10% FBS, cmpd/DMSO (mean)
[14] = HEK293, pGL4, 10% FBS, 2 uM, read-out: Firefly, pGL4, 10% FBS, cmpd/DMSO (mean)
[15] = HEK293, pGL4, 10% FBS, 10 uM, read-out: Firefly, pGL4, 10% FBS, cmpd/DMSO (mean)
[16] = HEK293, pGL4, 10% FBS, 40 uM, read-out: Firefly, pGL4, 10% FBS, cmpd/DMSO (mean)
[17] = read-out: Renilla, F4, cmpd/DMSO (mean)
[18] = 1% FBS, read-out: Renilla, F4, 1% FBS, cmpd/DMSO (mean)
[19] = 10% FBS, read-out: Renilla, F4, 10% FBS, cmpd/DMSO (mean)

- Firefly F4, cmpd/DMSO (mean) ([1]; 0.5 uM): 1.2
- Firefly F4, cmpd/DMSO (mean) ([1]; 2 uM): 2.0
- Firefly F4, cmpd/DMSO (mean) ([1]; 10 uM): 4.3
- Firefly F4, cmpd/DMSO (mean) ([1]; 40 uM): 3.4
- F4, Firefly/Renilla for S/B(F4) > 3 ([1]; 10% FBS, 40 uM): 2.6
- Firefly, F4/pGL4 for S/B(F4) > 3 ([1]; 10% FBS, 40 uM): 1.8
- Firefly, F4, 1% FBS, cmpd/DMSO (mean) ([1]; 1% FBS, 0.5 uM): 0.9
- Firefly, F4, 1% FBS, cmpd/DMSO (mean) ([1]; 1% FBS, 2 uM): 1.1
- Firefly, F4, 1% FBS, cmpd/DMSO (mean) ([1]; 1% FBS, 10 uM): 2.9
- Firefly, F4, 1% FBS, cmpd/DMSO (mean) ([1]; 1% FBS, 40 uM): 1.4
- Firefly, F4, 10% FBS, cmpd/DMSO (mean) ([1]; 10% FBS, 0.5 uM): 1.1
- Firefly, F4, 10% FBS, cmpd/DMSO (mean) ([1]; 10% FBS, 2 uM): 0.8
- Firefly, F4, 10% FBS, cmpd/DMSO (mean) ([1]; 10% FBS, 10 uM): 1.9
- Firefly, F4, 10% FBS, cmpd/DMSO (mean) ([1]; 10% FBS, 40 uM): 4.1
- Firefly LBD, cmpd/DMSO (mean) ([4]; 0.5 uM): 1.1
- Firefly LBD, cmpd/DMSO (mean) ([4]; 2 uM): 1.7
- Firefly LBD, cmpd/DMSO (mean) ([4]; 10 uM): 2.7
- Firefly LBD, cmpd/DMSO (mean) ([4]; 40 uM): 2.4
SMILES: COc1ccc(CCN[C@H]2CS(=O)(=O)C[C@@H]2S(=O)(=O)c2ccc(Cl)cc2)cc1OC [Compound D129]
- fold induction at 0.5 µM [2, 5]: 1.4
- fold induction at 2 µM [2, 6]: 1.5
- fold induction at 10 µM [2, 7]: 2.9
- fold induction at 40 µM [2, 8]: 1.6
- fold induction at 0.5 µM [2, 9]: 1.4
- fold induction at 2 µM [2, 10]: 1.2
- fold induction at 10 µM [2, 11]: 1.9
- fold induction at 40 µM [2, 12]: 1.6
- fold induction at 0.5 µM [2, 13]: 1
- fold induction at 2 µM [2, 14]: 1
- fold induction at 10 µM [2, 15]: 2
- fold induction at 40 µM [2, 16]: 2.2
- fold induction at 0.5 µM [3, 17]: 1.1
- fold induction at 2 µM [3, 17]: 1.2
- fold induction at 10 µM [3, 17]: 1.4
- fold induction at 40 µM [3, 17]: 1.6
- fold induction at 0.5 µM [3, 18]: 1.1
- fold induction at 2 µM [3, 18]: 1.1
- fold induction at 10 µM [3, 18]: 1.6
- fold induction at 40 µM [3, 18]: 1.5
- fold induction at 0.5 µM [3, 19]: 1
- fold induction at 2 µM [3, 19]: 0.9
- fold induction at 10 µM [3, 19]: 1.1
- fold induction at 40 µM [3, 19]: 1.5

- Firefly F4, cmpd/DMSO (mean) ([1]; 0.5 uM): 1.6
- Firefly F4, cmpd/DMSO (mean) ([1]; 2 uM): 1.3
- Firefly F4, cmpd/DMSO (mean) ([1]; 10 uM): 4.6
- Firefly F4, cmpd/DMSO (mean) ([1]; 40 uM): 2.1
- F4, Firefly/Renilla for S/B(F4) > 3 ([1]; 1% FBS, 10 uM): 2.0
- Firefly, F4/pGL4 for S/B(F4) > 3 ([1]; 1% FBS, 10 uM): 1.3
- F4, Firefly/Renilla for S/B(F4) > 3 ([1]; 10% FBS, 40 uM): 1.7
- Firefly, F4/pGL4 for S/B(F4) > 3 ([1]; 10% FBS, 40 uM): 1.4
- Firefly, F4, 1% FBS, cmpd/DMSO (mean) ([1]; 1% FBS, 0.5 uM): 0.9
- Firefly, F4, 1% FBS, cmpd/DMSO (mean) ([1]; 1% FBS, 2 uM): 1.9
- Firefly, F4, 1% FBS, cmpd/DMSO (mean) ([1]; 1% FBS, 10 uM): 3.1
- Firefly, F4, 1% FBS, cmpd/DMSO (mean) ([1]; 1% FBS, 40 uM): 0.4
- Firefly, F4, 10% FBS, cmpd/DMSO (mean) ([1]; 10% FBS, 0.5 uM): 1.2
- Firefly, F4, 10% FBS, cmpd/DMSO (mean) ([1]; 10% FBS, 2 uM): 1.0
- Firefly, F4, 10% FBS, cmpd/DMSO (mean) ([1]; 10% FBS, 10 uM): 2.3
- Firefly, F4, 10% FBS, cmpd/DMSO (mean) ([1]; 10% FBS, 40 uM): 4.5
- Firefly LBD, cmpd/DMSO (mean) ([4]; 0.5 uM): 1.4
- Firefly LBD, cmpd/DMSO (mean) ([4]; 2 uM): 1.6
- Firefly LBD, cmpd/DMSO (mean) ([4]; 10 uM): 3.6
- Firefly LBD, cmpd/DMSO (mean) ([4]; 40 uM): 0.5
SMILES: O=S1(=O)C[C@H](NC2CCCCC2)[C@@H](S(=O)(=O)c2ccc(Cl)cc2)C1 [Compound D124]
- fold induction at 0.5 µM [2, 5]: 1.4
- fold induction at 2 µM [2, 6]: 1.5
- fold induction at 10 µM [2, 7]: 3.1
- fold induction at 40 µM [2, 8]: 0.7
- fold induction at 0.5 µM [2, 9]: 1.1
- fold induction at 2 µM [2, 10]: 1.6
- fold induction at 10 µM [2, 11]: 2.4
- fold induction at 40 µM [2, 12]: 0.8
- fold induction at 0.5 µM [2, 13]: 1.2
- fold induction at 2 µM [2, 14]: 1.4
- fold induction at 10 µM [2, 15]: 2.2
- fold induction at 40 µM [2, 16]: 3.2
- fold induction at 0.5 µM [3, 17]: 1.1
- fold induction at 2 µM [3, 17]: 1.2
- fold induction at 10 µM [3, 17]: 1.5
- fold induction at 40 µM [3, 17]: 1.8
- fold induction at 0.5 µM [3, 18]: 1.1
- fold induction at 2 µM [3, 18]: 1.2
- fold induction at 10 µM [3, 18]: 1.5
- fold induction at 40 µM [3, 18]: 1.6
- fold induction at 0.5 µM [3, 19]: 1
- fold induction at 2 µM [3, 19]: 1
- fold induction at 10 µM [3, 19]: 1.3
- fold induction at 40 µM [3, 19]: 2.6

From US11377442B2, “Small molecule agonists and antagonists of NR2F6 activity” (ZANDER THERAPEUTICS, INC., priority 2016, dated 2022)
